Measurements: patent US20060211672A1, “Use of estrogen receptor-beta selective agonists for radiation-or chemotherapy-induced mucositis and radiation cystitis” (Wyeth, priority 2005, published 2006)

System: radiation-induced mucositis
Test: Acute radiation model of oral mucositis in hamsters
Format: in vivo, Syrian Golden Hamsters
Settings: for % Days with mucositis score ≧3 / Days with mucositis score ≧3: once daily beginning on day -1, 40 Gy radiation day 0, scored day 6 to 28; for Days with mucositis score ≧3: Total Days 240
From the text: The acute radiation model in hamsters has proven to be an accurate, efficient and cost-effective technique to provide a preliminary evaluation of anti-mucositis compounds (Sonis et al., Oral Surg Oral Med Oral Pathol 1990; 69(4):437-448). The course of mucositis in this model is well defined and results in peak scores approximately 14-16 Days following radiation. The acute model has little systemic toxicity, resulting in few hamster deaths which makes the acute model amenable for initial efficacy studies. The acute model has also been used to study specific mechanistic elements in the pathogenesis of mucositis.
Forty (40) Male LVG Syrian Golden Hamsters (Charles River Laboratories), aged 5 to 6 weeks, with average body weight of 116.3 g at study commencement, were used. Animals were individually numbered using an ear punch and housed 10 animals per cage. Animals were fed with a Purina Labdiet® 5061 rodent diet and water was provided ad libitum. Animals were acclimatized for two days prior to study commencement.
Animals were randomly and prospectively divided into four (4) treatment groups prior to irradiation. Mucositis was induced using a standardized acute radiation protocol, where a single dose of radiation (40 Gy/dose) was administered to all animals on day 0. Radiation was generated with a 160 kilovolt potential (15-ma) source at a focal distance of 30 cm, hardened with an AI filtration system. Irradiation targeted the left buccal pouch mucosa at a rate of 3.2 Gy/minute. Prior to irradiation, animals were anesthetized with an intra-peritoneal injection of Ketamine (160 mg/kg) and Xylazine (8 mg/kg). The left buccal pouch was everted, fixed and isolated using a lead shield.
Controls or 3-(3-Fluoro-4-hydroxy-phenyl)-7-hydroxy-naphthalene-1-carbonitrile (Compound 1) were given in the volumes and by the routes described in Table 1 and dosing began the day before radiation treatment.
The grade of mucositis was scored, beginning day 6, and for every second day thereafter, through and including day 28. For the evaluation of mucositis, the animals were anesthetized with an inhalation anesthetic, and the left pouch everted. Mucositis was scored visually by comparison to a validated photographic scale, ranging from 0 for normal, to 5 for severe ulceration (clinical scoring). In descriptive terms, this scale is defined as follows: Score: Description: • 0 Pouch completely healthy. No erythema or vasodilation. • 1 Light to severe erythema and vasodilation. No erosion of mucosa. • 2 Severe erythema and vasodilation. Erosion of superficial aspects of mucosa leaving denuded areas. Decreased stippling of mucosa. • 3 Formation of off-white ulcers in one or more places. Ulcers may have a yellow/gray appearance due to pseudomembrane. Cumulative size of ulcers should equal about ¼ of the pouch. Severe erythema and vasodilation. • 4 Cumulative seize of ulcers should equal about ½ of the pouch. Loss of pliability. Severe erythema and vasodilation. • 5 Virtually all of pouch is ulcerated. Loss of pliability (pouch can only partially be extracted from mouth)
A score of 1-2 is considered to represent a mild stage of the disease, whereas a score of 3-5 is considered to indicate moderate to severe mucositis.
The effect on mucositis of each route of administration of Compound 1 compared to vehicle was assessed by determining the difference in the number of days hamsters in each group have ulcerative (score ≧3) mucositis. Statistical significance was assessed by a Chi-squared test and p<0.05 was considered statistically significant.

N#Cc1cc(-c2ccc(O)c(F)c2)cc2ccc(O)cc12 [Compound 1, 3-(3-Fluoro-4-hydroxy-phenyl)-7-hydroxy-naphthalene-1-carbonitrile]
% Days with mucositis score ≧3 (Gavage, 10 mg/kg): 44% | Days with mucositis score ≧3 (Gavage, 10 mg/kg): 106 days | % Days with mucositis score ≧3 (Topical (intrapouch), 500 nM): 30% | Days with mucositis score ≧3 (Topical (intrapouch), 500 nM): 72 days | change in the number of days hamsters had ulcerative (score ≧3) mucositis, in words (administered by gavage, vs vehicle): no significant change | number of days animals experienced ulcerative mucositis, in words (administered topically (into the pouch), vs vehicle): significantly reduced
